Reference: patent publication US7320785B2, “Compositions and methods for modulation of DARPP-32 phosphorylation” (The Rockefeller University, priority 2001, dated 2008)
Marks after values point to notes of the source that are not given here.

Columns and labels:
DARPP-32 [1] = conditions: rat, in vivo; cited from earlier work
WT and DARPP-32 KO mice = experiment: Locomotor activity measurements in activity monitors; type: in vivo, mouse
Protocol: Locomotor activity of WT and DARPP-32 KO mice was measured in activity monitors (43×44×45 cm) equipped with both horizontal and vertical sensors (Opto-Varimex, Columbus Instruments, Columbus, Ohio). Mice were acclimated to the boxes for 1 h, […] before the day of the experiment. The day of the experiment, mice were placed in the boxes for 20 min (habituation period) before drug administration. […] Locomotor activity parameters (distance traveled and stereotypic movements) were quantified by using the AutoTrack System (Columbus Instruments).

DARPP-32 [2] = experiment: DARPP-32 phosphorylation in vivo in mice after i.p. injection, immunoblotting; parameters: species or system mouse; conditions: for phospho-Thr75 DARPP-32 / phospho-Thr34 DARPP-32: prefrontal cortex, 15 min
c-fos mRNA = c-fos mRNA expression by in situ hybridization in WT and DARPP-32 KO mice; type: in vivo, mouse; conditions: 20 min postinjection
Protocol: Twenty minutes after the injections, the animals were killed by decapitation and their brains frozen at −80° C. Coronal sections were then made and processed for in situ hybridization experiments with a probe against c-fos mRNA. The expression of c-fos mRNA is widely used as a marker for the biochemical activity of neurons. Manipulations of the serotonergic system, by PCA (4 mg/kg) and 5-HTP (50 mg/kg+carbidopa 50 mg/kg), increased c-fos mRNA expression in several brain regions, including prefrontal cortex and striatum in DARPP-32 wild-type mice.

[3] = forced-swim test and tail suspension test; cited from earlier work
[4] = 5-HTP 50 mg/kg + carbidopa 50 mg/kg
[5] = striatum, 4 mg/kg i.p., 15 min after injection

Compound: N[C@@H]1C[C@H]1c1ccccc1 (racemic) [tranylcypromine]
- frontal cortex levels of DARPP-32 immunoreactivity (DARPP-32 [1]): significant increases

Compound: N[C@@H](Cc1c[nH]c2ccc(O)cc12)C(=O)O [5-HTP, 5-hydroxytryptophan]
- locomotor activity and stereotypic behavior (WT and DARPP-32 KO mice; DARPP-32 KO mice, 5-HTP 50 mg/kg i.p. 30 min after carbidopa 50 mg/kg): abolished
- locomotor activity and stereotypic behavior (WT and DARPP-32 KO mice; WT mice, 5-HTP 50 mg/kg i.p. 30 min after carbidopa 50 mg/kg): robust increase
- phospho-Thr75 DARPP-32 (DARPP-32 [2]; 5-HTP 50 mg/kg i.p. after carbidopa, n=5): 74±8.0%
- phospho-Thr34 DARPP-32 (DARPP-32 [2]; 5-HTP 50 mg/kg i.p. after carbidopa, n=5 mice): 144±8.3%
- c-fos mRNA Levels in Striatum, DARPP-32 Knockout (c-fos mRNA; [4]): 0.092(0.009)#*
- c-fos mRNA Levels in Striatum, DARPP-32 Wild-type (c-fos mRNA; [4]): 0.195(0.017)*

Compound: CC(CNS(=O)(=O)C(C)C)c1ccc(-c2ccsc2)cc1 (stereo not drawn) [LY392098]
- antidepressant-like actions [3]: robust antidepressant-like actions

Compound: CC(CNS(=O)(=O)C(C)C)c1ccc(-c2ccc(C#N)cc2)cc1 (stereo not drawn) [LY404187]
- antidepressant-like actions [3]: robust antidepressant-like actions

Compound: CC(N)Cc1ccc(Cl)cc1 (stereo not drawn) [PCA, para-chloroamphetamine]
- locomotor activity and stereotypic behavior (WT and DARPP-32 KO mice; DARPP-32 KO mice, PCA 4 mg/kg i.p.): abolished
- locomotor activity and stereotypic behavior (WT and DARPP-32 KO mice; WT mice, PCA 4 mg/kg i.p., 50 min): robust increase
- phospho-Thr34 DARPP-32 (DARPP-32 [2]; PCA 4 mg/kg i.p., n=5 mice): 147±4.8%
- phospho-Thr75 DARPP-32 (DARPP-32 [2]; PCA 4 mg/kg i.p., n=5 mice): 79±3.8%
- Percent Phospho-Ser137 (DARPP-32 [2]; [5]): 128(7.1)* Percent
- Percent Phospho-Thr34 (DARPP-32 [2]; [5]): 171(9.1)* Percent
- Percent Phospho-Thr75 (DARPP-32 [2]; [5]): 80.1(3.4)* Percent
- c-fos mRNA Levels in Striatum, DARPP-32 Knockout (c-fos mRNA; PCA 4 mg/kg i.p.): 0.084(0.010)#*
- c-fos mRNA Levels in Striatum, DARPP-32 Wild-type (c-fos mRNA; PCA 4 mg/kg i.p.): 0.181(0.021)*
